Where a name gives a salt, the structure may show the parent alone.
Tests used:
PI3Kγ = biological target: T1, PI3Kγ (Homo sapiens, UniProt P48736); assay: PI3 Kinase HTRF assay, PI3Kγ; format: biochemical; settings: Between 1 μM and 10 μM; read-out: PI3K γ IC50
T1 construct: purchased Millipore Corporation 14-558-K
Source text: (§1) A PI3-Kinase HTRF® assay kit (cat No. 33-016) purchased from Millipore Corporation was used to screen compounds provided herein. This assay used specific, high affinity binding of the GRP1 pleckstrin homology (PH) domain to PIP3, the product of a Class 1A or 1B PI3 Kinase acting on its physiological substrate PIP2. During the detection phase of the assay, a complex was generated between the GST-tagged PH domain and biotinylated short chain PIP3. The biotinylated PIP3 and the GST-tagged PH domain recruited fluorophores (Streptavidin-Allophycocyanin and Europium-labeled anti-GST respectively) to form the fluorescence resonance energy transfer (FRET) architecture, generating a stable time-resolved FRET signal. The FRET complex was disrupted in a competitive manner by non-biotinylated PIP3, a product formed in the PI3 Kinase assay.
(§2) PI3 Kinase α, β, γ and δ activity was assayed using the PI3 Kinase HTRF® assay kit (catalogue No. 33-016) purchased from Millipore Corporation. Purified recombinant PI3Kα (catalogue No. 14-602-K), PI3Kβ (catalogue No. 14-603-K), PI3Kγ (catalogue No. 14-558-K) and PI3Kδ (catalogue No. 14-604-K) were obtained from Millipore Corporation. Purified recombinant PI3K enzyme was used to catalyze the phosphorylation of phosphatidylinositol 4,5-bisphosphate (PIP2 at 10 μM) to phosphatidylinositol 3,4,5-trisphosphate (PIP3) in the presence of 10 μM ATP. The assay was carried out in 384-well format and detected using a Perkin Elmer EnVision Xcite Multilabel Reader. Emission ratios were converted into percent inhibitions and imported into GraphPad Prism software. The concentration necessary to achieve inhibition of enzyme activity by 50% (IC50) was calculated using concentrations ranging from 20 μM to 0.1 nM (12-point curve). IC50 values were determined using a nonlinear regression model available in GraphPad Prism 5.

PI3Kβ = biological target: T2, PI3Kβ (Homo sapiens, UniProt P42338); assay: PI3 Kinase HTRF assay, PI3Kβ; format: biochemical; settings: Between 1 μM and 10 μM; read-out: PI3K β IC50
T2 construct: purchased Millipore Corporation 14-603-K
Source text: as §1, §2

Balb/c splenic B cells = assay: B cell activation and proliferation assay (Alamar Blue); format: cell-based; settings: Mus musculus
Experimental: The ability of one or more subject compounds to inhibit B cell activitation and proliferation is determined according to standard procedures known in the art. For example, an in vitro cellular proliferation assay is established that measures the metabolic activity of live cells. The assay is performed in a 96 well microtiter plate using Alamar Blue reduction. Balb/c splenic B cells are purified over a Ficoll-Paque™ PLUS gradient followed by magnetic cell separation using a MACS B cell Isolation Kit (Miletenyi). Cells are plated in 90 μl at 50,000 cells/well in B Cell Media (RPMI+10% FBS+Penn/Strep+50 μM bME+5 mM HEPES). A compound provided herein is diluted in B Cell Media and added in a 10 μl volume. Plates are incubated for 30 min at 37° C. and 5% CO2 (0.2% DMSO final concentration). A 50 μl B cell stimulation cocktail is then added containing either 10 μg/ml LPS or 5 μg/ml F(ab′)2 Donkey anti-mouse IgM plus 2 ng/ml recombinant mouse IL4 in B Cell Media. Plates are incubated for 72 hours at 37° C. and 5% CO2. A volume of 15 μL of Alamar Blue reagent is added to each well and plates are incubated for 5 hours at 37° C. and 5% CO2. Alamar Blue fluoresce is read at 560Ex/590Em, and IC50 or EC50 values are calculated using GraphPad Prism 5.

NZB/W model = settings: prophylactic and therapeutic model; cited from earlier work
PI3Kδ = biological target: T3, PI3Kδ (Homo sapiens, UniProt O00329); assay: PI3 Kinase HTRF assay, PI3Kδ; format: biochemical; settings: Between 1 μM and 10 μM; read-out: PI3K δ IC50
T3 construct: purchased Millipore Corporation 14-604-K
Source text: as §1, §2

B6.Sle1z.Sle3z model = settings: cited from earlier work
[1] = PBS pH 7.4, 37° C., 24 hours, 5 μM; cited from earlier work
[2] = human plasma, 5 μM; cited from earlier work
PI3Kα = biological target: T4, PI3Kα (Homo sapiens, UniProt P42336); assay: PI3 Kinase HTRF assay, PI3Kα; format: biochemical; settings: Between 1 μM and 10 μM; read-out: PI3K α IC50
T4 construct: purchased Millipore Corporation 14-602-K
Source text: as §1, §2

[3] = tested on: phospho-AKT in RAJI cells; assay: PI3Kδ selective cellular assay, phospho-AKT in anti-IgM stimulated RAJI cells; format: cell-based; settings: Homo sapiens; RAJI cell model
Source text: A compound's ability in selectively inhibiting PI3Kδ can be assessed using RAJI cells, i.e., B lymphocyte cells derived from lymphoma patients. Briefly, serum-starved RAJI cells are stimulated with anti-human IgM, thereby causing signaling through the B-cell receptors, as described in, for example, He et al., Leukemia Research (2009) 33: 798-802. B-cell receptor signaling is important for the activation, differentiation, and survival of B cells and certain B-cell derived cancers. Reduction of phospho-AKT is indicative of compounds that may inhibit B-cell proliferation and function in certain diseases. By monitoring the reduction of phospho-AKT in stimulated RAJI cells (using for example, phospho-AKT antibodies), a compound's potential efficacy in selectively inhibiting PI3Kδ can be assessed.
Certain compounds provided herein (e.g., Compounds 5, 38, 103, 105, 106, 107, 108, and 109) were tested in RAJI cell model using procedures as described above.

[4] = tested on: phospho-AKT in RAW 264.7 cells; assay: PI3Kγ selective cellular assay, phospho-AKT in C5a stimulated RAW 264.7 cells; format: cell-based; settings: Mus musculus, RAW264.7, RAW 264.7 cell model
Source text: A compound's ability in selectively inhibiting PI3Kγ can be assessed using RAW264.7 macrophages. Briefly, serum-starved PAW264.7 cells are stimulated with a known GPCR agonist C5a. (See, e.g., Camps et al., Nature Medicine (2005) 11(9): 936-943). Cells can be treated with test compounds prior to, simultaneously with, or subsequent to the stimulation by C5a. RAW 264.7 cells respond to the complement component fragment C5a through activation of the C5a receptor, and the C5a receptor activates macrophages and induces cell migration. Test compounds' ability to inhibit C5a-mediated AKT phosphorylation is indicative of selective inhibition of PI3Kγ. Thus, by monitoring the reduction of phospho-AKT in stimulated RAW 264.7 cells (using for example, phospho-AKT antibodies), a compound's potential efficacy in selectively inhibiting PI3Kγ can be assessed.
Certain compounds provided herein (e.g., Compounds 5, 38, 103, 105, 106, 107, 108, and 109) were tested in RAW 264.7 cell model using procedures as described above.

[5] = tested on: phospho-AKT in SKOV-3 cells; assay: PI3Kα selective cellular assay, phospho-AKT in SKOV-3 cells; format: cell-based; settings: Homo sapiens, SK-OV-3, SKOV-3 cell model
Source text: A compound's ability in selectively inhibiting PI3Kα can be assessed using SKOV-3 cells, i.e., human ovarian carcinoma cell line. Briefly, SKOV-3 cells, in which mutant PI3Kα is constitutively active, can be treated with test compounds. Test compounds' ability to inhibit AKT phosphorylation in SKOV-3 cells, therefore, is indicative of selective inhibition of PI3Kα. Thus, by monitoring the reduction of phospho-AKT in SKOV-3 cells (using for example, phospho-AKT antibodies), a compound's potential efficacy in selectively inhibiting PI3Kα can be assessed.
Certain compounds provided herein (e.g., Compounds 5, 38, 103, and 106) were tested in SKOV-3 cell model using procedures as described above.

[6] = tested on: phospho-AKT in 786-O cells; assay: PI3Kβ selective cellular assay, phospho-AKT in 786-O cells; format: cell-based; settings: Homo sapiens, 786-0, 786-O cell model
Source text: A compound's ability in selectively inhibiting PI3Kβ can be assessed using 786-O cells, i.e., human kidney carcinoma cell line. Briefly, 786-O cells, in which PI3Kβ is constitutively active, can be treated with test compounds. Test compounds' ability to inhibit AKT phosphorylation in 786-O cells, therefore, is indicative of selective inhibition of PI3Kβ. Thus, by monitoring the reduction of phospho-AKT in 786-O cells (using for example, phospho-AKT antibodies), a compound's potential efficacy in selectively inhibiting PI3Kβ can be assessed.
Certain compounds provided herein (e.g., Compounds 5, 38, 103, and 106) were tested in 786-O cell model using procedures as described above.

[7] = tested on: p190 transduced leukemic cells; settings: about 70 mg/kg twice daily; cited from earlier work
[8] = range between 100 nM and 1 μM (bounds carry own units)

T1 sequence (P48736 whole entry): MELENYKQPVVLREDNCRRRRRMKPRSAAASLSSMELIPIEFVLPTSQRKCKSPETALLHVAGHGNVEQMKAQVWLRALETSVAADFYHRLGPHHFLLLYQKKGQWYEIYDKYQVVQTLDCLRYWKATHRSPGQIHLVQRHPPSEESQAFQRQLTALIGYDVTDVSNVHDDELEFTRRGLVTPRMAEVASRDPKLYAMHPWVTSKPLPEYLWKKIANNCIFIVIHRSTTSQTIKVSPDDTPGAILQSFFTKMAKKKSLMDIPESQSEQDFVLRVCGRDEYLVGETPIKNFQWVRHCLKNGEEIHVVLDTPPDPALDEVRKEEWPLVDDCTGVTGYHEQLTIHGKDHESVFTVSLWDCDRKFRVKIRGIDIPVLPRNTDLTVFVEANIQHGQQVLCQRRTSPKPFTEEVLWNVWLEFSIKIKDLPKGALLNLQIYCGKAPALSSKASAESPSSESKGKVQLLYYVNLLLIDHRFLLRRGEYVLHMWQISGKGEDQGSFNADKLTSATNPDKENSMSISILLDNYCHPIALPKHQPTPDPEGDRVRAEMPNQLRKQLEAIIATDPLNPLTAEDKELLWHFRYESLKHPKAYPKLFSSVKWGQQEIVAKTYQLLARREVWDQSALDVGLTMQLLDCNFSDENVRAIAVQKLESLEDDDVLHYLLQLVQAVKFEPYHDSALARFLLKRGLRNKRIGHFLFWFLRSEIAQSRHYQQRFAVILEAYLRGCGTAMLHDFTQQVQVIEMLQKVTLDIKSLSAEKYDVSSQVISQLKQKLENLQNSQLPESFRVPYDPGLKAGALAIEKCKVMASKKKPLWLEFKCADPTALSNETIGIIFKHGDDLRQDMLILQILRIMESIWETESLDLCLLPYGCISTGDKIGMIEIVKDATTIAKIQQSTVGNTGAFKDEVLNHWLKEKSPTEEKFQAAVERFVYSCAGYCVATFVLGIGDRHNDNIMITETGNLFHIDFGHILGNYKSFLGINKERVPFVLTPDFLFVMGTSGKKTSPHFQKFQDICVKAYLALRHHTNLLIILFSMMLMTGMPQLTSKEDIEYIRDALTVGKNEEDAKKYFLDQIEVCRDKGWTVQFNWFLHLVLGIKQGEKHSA
T4 sequence (P42336 whole entry): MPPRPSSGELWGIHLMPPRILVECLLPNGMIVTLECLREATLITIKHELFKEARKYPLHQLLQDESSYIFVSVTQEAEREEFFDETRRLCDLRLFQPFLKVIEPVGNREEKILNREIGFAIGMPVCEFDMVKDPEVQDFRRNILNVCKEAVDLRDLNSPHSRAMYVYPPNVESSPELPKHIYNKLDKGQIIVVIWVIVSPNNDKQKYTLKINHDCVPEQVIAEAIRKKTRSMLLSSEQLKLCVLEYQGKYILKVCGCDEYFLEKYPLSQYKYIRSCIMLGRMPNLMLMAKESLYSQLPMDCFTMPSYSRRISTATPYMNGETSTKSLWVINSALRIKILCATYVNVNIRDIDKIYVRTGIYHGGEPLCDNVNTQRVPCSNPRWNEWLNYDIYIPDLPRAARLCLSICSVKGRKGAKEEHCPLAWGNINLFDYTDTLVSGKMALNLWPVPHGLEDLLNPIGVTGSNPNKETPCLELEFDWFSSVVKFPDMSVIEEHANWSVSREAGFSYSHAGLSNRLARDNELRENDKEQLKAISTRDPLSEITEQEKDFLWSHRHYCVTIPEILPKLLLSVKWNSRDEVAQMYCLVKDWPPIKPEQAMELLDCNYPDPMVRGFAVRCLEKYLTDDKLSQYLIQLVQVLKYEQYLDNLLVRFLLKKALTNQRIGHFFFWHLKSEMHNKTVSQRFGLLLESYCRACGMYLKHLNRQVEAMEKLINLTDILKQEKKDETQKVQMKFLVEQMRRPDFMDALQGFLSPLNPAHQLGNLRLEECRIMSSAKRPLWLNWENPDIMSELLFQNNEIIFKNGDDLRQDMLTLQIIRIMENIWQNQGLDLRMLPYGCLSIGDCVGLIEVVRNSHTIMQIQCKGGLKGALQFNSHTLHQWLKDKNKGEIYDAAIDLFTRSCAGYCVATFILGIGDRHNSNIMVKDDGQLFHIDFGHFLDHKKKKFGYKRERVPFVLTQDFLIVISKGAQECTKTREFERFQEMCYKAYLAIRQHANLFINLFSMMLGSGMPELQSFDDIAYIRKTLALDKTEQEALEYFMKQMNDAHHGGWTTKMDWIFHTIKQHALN
T4 sequence (P27986 whole entry partner): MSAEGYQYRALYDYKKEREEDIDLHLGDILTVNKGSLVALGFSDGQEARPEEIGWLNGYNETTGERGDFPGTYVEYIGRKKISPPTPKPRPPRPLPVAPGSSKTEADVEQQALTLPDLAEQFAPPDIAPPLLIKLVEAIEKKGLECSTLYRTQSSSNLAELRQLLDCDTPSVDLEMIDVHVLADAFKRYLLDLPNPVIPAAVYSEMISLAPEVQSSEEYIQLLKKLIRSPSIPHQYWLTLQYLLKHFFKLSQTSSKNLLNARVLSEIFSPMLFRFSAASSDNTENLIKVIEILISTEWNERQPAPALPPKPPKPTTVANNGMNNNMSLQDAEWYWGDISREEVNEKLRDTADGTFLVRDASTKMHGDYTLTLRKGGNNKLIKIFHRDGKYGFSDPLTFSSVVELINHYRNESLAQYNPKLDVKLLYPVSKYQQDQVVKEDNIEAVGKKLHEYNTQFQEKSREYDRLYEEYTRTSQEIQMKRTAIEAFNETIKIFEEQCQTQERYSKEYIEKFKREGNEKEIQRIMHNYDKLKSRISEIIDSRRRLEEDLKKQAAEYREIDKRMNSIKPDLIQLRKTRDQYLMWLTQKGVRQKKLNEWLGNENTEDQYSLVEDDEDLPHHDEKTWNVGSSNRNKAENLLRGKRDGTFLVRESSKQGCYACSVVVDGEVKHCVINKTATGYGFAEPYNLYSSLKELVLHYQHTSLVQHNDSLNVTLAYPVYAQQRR
T2 sequence (P42338 whole entry): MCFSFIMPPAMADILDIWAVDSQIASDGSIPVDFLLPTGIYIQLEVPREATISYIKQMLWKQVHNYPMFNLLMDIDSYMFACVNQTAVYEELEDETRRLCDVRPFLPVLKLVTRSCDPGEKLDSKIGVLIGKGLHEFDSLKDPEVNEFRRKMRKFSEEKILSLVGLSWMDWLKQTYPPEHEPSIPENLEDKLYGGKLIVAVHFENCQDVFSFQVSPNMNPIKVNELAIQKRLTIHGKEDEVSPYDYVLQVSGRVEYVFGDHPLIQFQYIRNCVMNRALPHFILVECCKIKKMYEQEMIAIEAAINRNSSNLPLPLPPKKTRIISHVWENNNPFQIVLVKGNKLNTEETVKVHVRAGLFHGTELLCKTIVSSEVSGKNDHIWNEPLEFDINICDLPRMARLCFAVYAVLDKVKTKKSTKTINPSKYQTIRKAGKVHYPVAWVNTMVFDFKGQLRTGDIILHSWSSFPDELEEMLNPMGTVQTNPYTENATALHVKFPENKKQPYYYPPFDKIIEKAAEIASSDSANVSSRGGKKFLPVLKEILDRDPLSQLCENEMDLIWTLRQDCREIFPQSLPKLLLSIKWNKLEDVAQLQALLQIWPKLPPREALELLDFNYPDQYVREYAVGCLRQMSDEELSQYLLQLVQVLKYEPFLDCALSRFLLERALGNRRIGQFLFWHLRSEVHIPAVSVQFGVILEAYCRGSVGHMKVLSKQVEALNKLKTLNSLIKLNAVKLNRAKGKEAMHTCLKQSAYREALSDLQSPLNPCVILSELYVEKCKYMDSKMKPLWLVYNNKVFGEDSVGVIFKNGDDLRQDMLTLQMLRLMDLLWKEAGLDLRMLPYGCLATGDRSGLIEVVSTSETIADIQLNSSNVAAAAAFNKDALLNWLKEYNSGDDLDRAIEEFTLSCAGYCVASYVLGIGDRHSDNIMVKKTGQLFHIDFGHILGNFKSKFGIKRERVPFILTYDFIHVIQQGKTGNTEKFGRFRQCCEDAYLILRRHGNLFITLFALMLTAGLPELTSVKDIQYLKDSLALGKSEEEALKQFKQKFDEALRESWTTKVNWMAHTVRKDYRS
T2 sequence (P27986 2-724 partner limits assumed): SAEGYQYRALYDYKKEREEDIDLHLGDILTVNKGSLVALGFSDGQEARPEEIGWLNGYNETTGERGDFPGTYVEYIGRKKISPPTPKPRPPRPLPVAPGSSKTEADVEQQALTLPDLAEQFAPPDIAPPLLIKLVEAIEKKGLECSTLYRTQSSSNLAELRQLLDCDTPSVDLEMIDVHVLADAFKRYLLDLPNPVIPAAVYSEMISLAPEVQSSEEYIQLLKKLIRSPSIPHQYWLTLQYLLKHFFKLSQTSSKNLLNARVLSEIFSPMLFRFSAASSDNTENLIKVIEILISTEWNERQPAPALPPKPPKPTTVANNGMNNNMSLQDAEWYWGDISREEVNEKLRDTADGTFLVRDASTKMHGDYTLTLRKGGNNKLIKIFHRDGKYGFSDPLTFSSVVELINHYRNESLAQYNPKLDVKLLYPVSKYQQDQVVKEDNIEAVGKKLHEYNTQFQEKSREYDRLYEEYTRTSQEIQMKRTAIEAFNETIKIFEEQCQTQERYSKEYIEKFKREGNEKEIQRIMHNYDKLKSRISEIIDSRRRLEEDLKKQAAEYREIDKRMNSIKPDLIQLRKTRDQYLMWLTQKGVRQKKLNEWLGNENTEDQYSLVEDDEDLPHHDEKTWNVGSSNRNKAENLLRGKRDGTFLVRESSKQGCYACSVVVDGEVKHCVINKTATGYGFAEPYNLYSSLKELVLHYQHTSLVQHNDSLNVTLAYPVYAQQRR

Cc1nsc2cc(C(C)Nc3ncnc4scnc34)n(-c3ccccc3)c(=O)c12 (centres unmarked) [Compound 12]
IC50 (PI3Kγ): 1000 to 10000 nM | IC50 (PI3Kβ): 1000 to 10000 nM | EC50 (Balb/c splenic B cells; Less than 100 nanoMolar): < 100 nM

CC(C)C[C@H](NC(=O)[C@H](Cc1ccccc1)NC(=O)c1cnccn1)B(O)O [Bortezimib, bortezomib]
disease in NZB/W model (NZB/W model): effective at blocking disease

Cc1nc2c(N[C@@H](C)c3cc4cccc(Cl)c4c(=O)n3-c3cccc(F)c3)ncnc2s1 [Compound 78]
IC50 (PI3Kδ): 1000 to 10000 nM

CO[C@H]1C[C@@H]2CC[C@@H](C)[C@@](O)(O2)C(=O)C(=O)N2CCCC[C@H]2C(=O)O[C@H]([C@H](C)C[C@@H]2CC[C@@H](OCCO)[C@H](OC)C2)CC(=O)[C@H](C)/C=C(\C)[C@@H](O)[C@@H](OC)C(=O)[C@H](C)C[C@H](C)/C=C/C=C/C=C/1C [RAD001, everolimus]
lupus symptoms (B6.Sle1z.Sle3z model): ameliorate lupus symptoms

O=C(O)CCCc1ccc(N(CCCl)CCCl)cc1 [chlorambucil]
chemical stability [1]: largely hydrolyzed over the course of 24 hours

CC(C)[N+](C)(CCOC(=O)C1c2ccccc2Oc2ccccc21)C(C)C [propantheline]
plasma stability [2]: intermediate plasma stability

CCCOc1cc(N)ccc1C(=O)OCCN(CC)CC [propoxycaine]
plasma stability [2]: low plasma stability

COc1ncc(-c2cccc3cc([C@H](C)Nc4ncnc5scnc45)n(-c4ccccc4)c(=O)c23)cn1 [Compound 38]
IC50 (PI3Kα): 1000 to 10000 nM | IC50 (PI3Kβ): 1000 to 10000 nM | EC50 (Balb/c splenic B cells; Less than 100 nanoMolar): < 100 nM | IC50 [3]: < 100 nM | IC50 [4, 8]: 100 to 1000 nM | IC50 [5]: 1000 to 10000 nM | IC50 [6]: 1000 to 10000 nM

C[C@H](Nc1ncnc2scnc12)c1cc2cccc(-c3cnc4c(c3)CCCC4)c2c(=O)n1-c1ccccc1 [Compound 59]
IC50 (PI3Kδ): 1000 to 10000 nM | IC50 (PI3Kγ): 1000 to 10000 nM | EC50 (Balb/c splenic B cells; Between 1 μM and 10 μM): 1000 to 10000 nM

Cc1nc2c(N[C@@H](C)c3cc4cccc(-c5cnn(C)c5)c4c(=O)n3-c3ccccc3)ncnc2s1 [Compound 79]
IC50 (PI3Kδ): 1000 to 10000 nM | IC50 (PI3Kγ): 1000 to 10000 nM

CC(C)n1c([C@H](C)Nc2ncnc3scnc23)cc2cccc(-c3ccc(=O)n(C)c3)c2c1=O [Compound 103]
IC50 (PI3Kα): 1000 to 10000 nM | IC50 (PI3Kβ): 1000 to 10000 nM | IC50 [3]: < 100 nM | IC50 [4, 8]: 100 to 1000 nM | IC50 [5, 8]: 100 to 1000 nM | IC50 [6, 8]: 100 to 1000 nM

COc1ncc(-c2cccc3cc([C@H](C)Nc4ncnc5scnc45)n(-c4ccon4)c(=O)c23)cn1 [Compound 106]
IC50 (PI3Kα): 1000 to 10000 nM | IC50 (PI3Kβ): 1000 to 10000 nM | IC50 [3]: < 100 nM | IC50 [4]: 1000 to 10000 nM | IC50 [5, 8]: 100 to 1000 nM | IC50 [6, 8]: 100 to 1000 nM

C[C@H](Nc1ncnc2scnc12)c1cc2cccc(-c3cnn(C)c3)c2c(=O)n1-c1ccccc1 [Compound 5]
IC50 (PI3Kβ): 1000 to 10000 nM | EC50 (Balb/c splenic B cells; Less than 100 nanoMolar): < 100 nM | IC50 [3]: < 100 nM | IC50 [4]: < 100 nM | IC50 [5, 8]: 100 to 1000 nM | IC50 [6]: 1000 to 10000 nM

C[C@H](Nc1ncnc2scnc12)c1cc2cccc(C(=O)O)c2c(=O)n1-c1ccccc1 [Compound 84]
IC50 (PI3Kδ): 1000 to 10000 nM | IC50 (PI3Kγ): 1000 to 10000 nM | EC50 (Balb/c splenic B cells; Between 100 nM and 1 μM): 100 to 1000 nM

Cc1ccc(NC(=O)c2ccc(CN3CCN(C)CC3)cc2)cc1Nc1nccc(-c2cccnc2)n1 [imatinib, Imatinib Mesylate]
leukemogenesis [7]: delay but not cure leukemogenesis

C[C@H](Nc1ncnc2scnc12)c1cc2cccc(-c3cnn(C)c3)c2c(=O)n1C [Compound 82]
IC50 (PI3Kγ): 1000 to 10000 nM | IC50 (PI3Kα): 1000 to 10000 nM | IC50 (PI3Kβ): 1000 to 10000 nM | EC50 (Balb/c splenic B cells; Between 100 nM and 1 μM): 100 to 1000 nM
